Laboratory results as given in US20250074892A1, “CARBONYL BRIDGED HETEROCYCLIC COMPOUND, AND COMPOSITION AND APPLICATION THEREOF” (BEIJING SCITECH-MQ PHARMACEUTICALS LIMITED, priority 2022, published 2025).

Columns and labels:
[1] = system: HT29 cells; assay: Inhibition of cell necrosis (CCK8 method), HT29 cells; type: cell-based, human; conditions: HT29, Human TNF-α/AT-406/Z-VAD-FMK, 16 hours, CCK8
Method: (§1) In this assay example 2, under the condition of inducing programmed cell necrosis of HT29 and L929 cell lines, different concentrations of the test compounds were added to test the IC50 of the rescue effect of the test compounds on the programmed necrosis.
(§2) • Compounds: dissolved in DMSO to make a 10 mM solution; • TNF-α: initial concentration of 100 µg/mL; • Z-VAD-FMK: dissolved in DMSO to make a 10 mM solution; • AT-406: dissolved in DMSO to make a 10 mM solution. • Cell lines: HT29 cells were cultured in McCoy's 5A medium containing 10% fetal bovine serum, 100 U/mL penicillin, and 100 µg/mL streptomycin, and L929 cells were cultured in MEM medium containing 10% horse serum, 100 U/mL penicillin, and 100 µg/mL streptomycin.
(§3) 1. The test compound was dissolved in DMSO to form a stock solution, and a gradient dilution was performed; the solution was then diluted with the corresponding culture medium to obtain a solution with 10 times the working concentration.
(§4) 2. The cells in the logarithmic growth phase were diluted with culture medium to a specific cell concentration. 80 µL of the cell suspension was added to a 96-well plate, so that the cell densities of HT29 and L929 were 1.2*10^4 cells/well and 2.0*10^4 cells/well, respectively. The plate was cultured in a 37° C., 5% carbon dioxide incubator overnight.
(§5) 3. […] of the compound solution was added to each well of the 96-well plate inoculated with cells. The compounds to be tested were serially diluted 4-fold to obtain 9 concentrations in duplicate, starting from a maximum concentration of 10 μM. At the same time, a control group without compound addition was set up.
(§6) 4. After the cells were cultured for another 30 minutes, 10 μL of the inducer mixture was added to each well. The final concentrations of Human TNF-α, AT-406 and Z-VAD-FMK in HT29 cells were 20 ng/mL, […] and 20 μM, respectively; and the final concentrations of Murine TNF-α and Z-VAD-FMK in L929 cells were 20 ng/mL and 25 μM, respectively.
(§7) 5. The 96-well plate in which compounds and inducer were added was placed in a 37° C., 5% carbon dioxide incubator for further culture, wherein HT29 cells were cultured for 16 hours and L929 cells were cultured for 4-8 hours. Cell viability was detected by CCK8. GraphPad Prism software was used to prepare a dose-effect curve and IC50 was calculated.

[2] = system: L929 cells; assay: Inhibition of cell necrosis (CCK8 method), L929 cells; type: cell-based, mouse; conditions: 4-8 hours, CCK8
Method: as §1, §2, §3, §4, §5, §6, §7

[3] = Mus musculus, L929, L929, Murine TNF-α/Z-VAD-FMK

SMILES	IC50 [1]	IC50 ([2]; L929, Murine TNF-α/Z-VAD-FMK)	IC50 ([1]; Homo sapiens, HT-29, 16 h)	IC50 [2, 3]
Cc1ccc(OCCCO)cc1-c1ccnc(N2CCC(C(=O)N3N=CCC3c3ccccc3F)CC2)c1 (stereo not shown) [Example 20, (5-(2-fluorophenyl)-4,5-dihydro-1H-pyrazol-1-yl)(1-(4-(5-(3-hydroxypropoxy)-2-methylphenyl)pyridin-2-yl)piperidin-4-yl)methanone]	10 to 50 nM	10 to 50 nM	–	–
O=C(C1CCN(c2cc(-c3cc(OCCO)ccc3F)ccn2)CC1)N1N=CCC1c1cc(F)cc(F)c1 (stereo not shown) [Example 22, (5-(3,5-difluorophenyl)-4,5-dihydro-1H-pyrazol-1-yl)(1-(4-(2-fluoro-5-(2-hydroxyethoxy)phenyl)pyridin-2-yl)piperidin-4-yl)methanone]	–	–	≤ 10 nM	50 to 100 nM
O=C(C1CCN(c2cc(-c3cc(OCCCCCO)ccc3F)ccn2)CC1)N1N=CCC1c1cc(F)cc(F)c1 (stereo not shown) [Example 25, (5-(3,5-difluorophenyl)-4,5-dihydro-1H-pyrazol-1-yl)(1-(4-(2-fluoro-5-((5-hydroxypentyl)oxy)phenyl)pyridin-2-yl)piperidin-4-yl)methanone]	–	–	≤ 10 nM	10 to 50 nM
CC(C)(O)CCCCOc1ccc(F)c(-c2ccnc(N3CCC(C(=O)N4N=CCC4c4cc(F)cc(F)c4)CC3)c2)c1 (stereo not shown) [Example 26, (5-(3,5-difluorophenyl)-4,5-dihydro-1H-pyrazol-1-yl)(1-(4-(2-fluoro-5-((5-hydroxy-5-methylhexyl)oxy)phenyl)pyridin-2-yl)piperidin-4-yl)methanone]	–	–	≤ 10 nM	10 to 50 nM
O=C(C1CCN(c2cc(-c3cc(OCCCF)ccc3F)ccn2)CC1)N1N=CCC1c1cc(F)cc(F)c1 (stereo not shown) [Example 27, (5-(3,5-difluorophenyl)-4,5-dihydro-1H-pyrazol-1-yl)(1-(4-(2-fluoro-5-(3-fluoropropoxy)phenyl)pyridin-2-yl)piperidin-4-yl)methanone]	–	–	≤ 10 nM	50 to 100 nM
COCCOc1ccc(C)c(-c2ccnc(N3CCC(C(=O)N4N=CCC4c4ccccc4)CC3)c2)c1 (stereo not shown) [Example 28, (1-(4-(5-(2-methoxyethoxy)-2-methylphenyl)pyridin-2-yl)piperidin-4-yl)(5-phenyl-4,5-dihydro-1H-pyrazol-1-yl)methanone]	–	–	≤ 10 nM	50 to 100 nM
Cc1ccc(OCCCO)cc1-c1ccnc(N2CCC(C(=O)N3N=CCC3c3ccccc3F)CC2)c1 (stereo not shown) [Example 29, (5-(2-fluorophenyl)-4,5-dihydro-1H-pyrazol-1-yl)(1-(4-(5-(3-hydroxypropoxy)-2-methylphenyl)pyridin-2-yl)piperidin-4-yl)methanone]	–	50 to 100 nM	10 to 50 nM	–
COCCCOc1ccc(F)c(-c2ccnc(N3CCC(C(=O)N4N=CCC4c4cc(F)cc(F)c4)CC3)c2)c1 (stereo not shown) [Example 30, (5-(3,5-difluorophenyl)-4,5-dihydro-1H-pyrazol-1-yl)(1-(4-(2-fluoro-5-(3-methoxypropoxy)phenyl)pyridin-2-yl)piperidin-4-yl)methanone]	–	–	≤ 10 nM	50 to 100 nM
Cc1ccc(OCCCO)cc1-c1ccnc(N2CCC(C(=O)N3N=CCC3c3ccccc3)CC2)c1 (stereo not shown) [Example 31, (1-(4-(5-(3-hydroxypropoxy)-2-methylphenyl)pyridin-2-yl)piperidin-4-yl)(5-phenyl-4,5-dihydro-1H-pyrazol-1-yl)methanone]	–	–	≤ 10 nM	10 to 50 nM
COCCCCOc1ccc(C)c(-c2ccnc(N3CCC(C(=O)N4N=CCC4c4cc(F)cc(F)c4)CC3)c2)c1 (stereo not shown) [Example 32, (5-(3,5-difluorophenyl)-4,5-dihydro-1H-pyrazol-1-yl)(1-(4-(5-(4-methoxybutoxy)-2-methylphenyl)pyridin-2-yl)piperidin-4-yl)methanone]	–	10 to 50 nM	≤ 10 nM	–
Cc1ccc(OCC2CCOCC2)cc1-c1ccnc(N2CCC(C(=O)N3N=CCC3c3cc(F)cc(F)c3)CC2)c1 (stereo not shown) [Example 33, (5-(3,5-difluorophenyl)-4,5-dihydro-1H-pyrazol-1-yl)(1-(4-(2-methyl-5-((tetrahydro-2H-pyran-4-yl)methoxy)phenyl)pyridin-2-yl)piperidin-4-yl)methanone]	–	–	≤ 10 nM	10 to 50 nM
